Data as given in patent US11884675B2, “Heterocyclic compounds as triggering receptor expressed on myeloid cells 2 agonists and methods of use” (AMGEN INC., priority 2020, dated 2024).

Target: hTREM2 (Homo sapiens, UniProt Q9NZC2)
Assay: TREM2 activity by cellular Syk phosphorylation (AlphaScreen/AlphaLISA) in TREM2/DAP12-HEK cells, used for Examples 1-305
Assay type: cell-based
Design: expressed in transfected cells
Conditions: HEK293 Cells
How it was run: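 Single-cell-cloned HEK293 cells overexpressing TREM2 and DAP12, seeded 20 h, exposed to test articles (1% final DMSO) for 45 min at room temperature. Lysates read for phospho-Syk (Tyr525/526) vs total Syk by AlphaScreen. Signal normalised as percent of control between isotype IgG and 100 nM anti-TREM2 antibody; 4-parameter logistic fit.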

Sequence of hTREM2 (Q9NZC2 19-230): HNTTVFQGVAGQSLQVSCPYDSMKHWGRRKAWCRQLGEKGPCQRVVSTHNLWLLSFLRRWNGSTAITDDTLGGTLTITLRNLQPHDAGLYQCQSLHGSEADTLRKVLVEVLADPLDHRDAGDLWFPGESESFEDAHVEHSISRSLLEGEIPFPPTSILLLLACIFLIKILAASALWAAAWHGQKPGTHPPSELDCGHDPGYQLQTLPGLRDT
Sequence of hTREM2 (O43914 22-113 partner): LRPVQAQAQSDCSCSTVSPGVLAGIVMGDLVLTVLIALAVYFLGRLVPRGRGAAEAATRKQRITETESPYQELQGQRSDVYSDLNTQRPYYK

EC50 [µM]	hTREM2 Emax	SMILES
≤ 0.05	+++ (Emax>150 and ≤250)	Cc1nc2nc(N3CCO[C@@H](c4cnn(C)c4)C3)cc(-c3ccc(F)cc3F)c2nc1C [Example 161, 8-(2,4-difluorophenyl)-2,3-dimethyl-6-((2S)-2-(1-methyl-1H-pyrazol-4-yl)-4-morpholinyl)pyrido [2,3-b]pyrazine]
≤ 0.05	++++ (Emax>250)	Cc1nc2cc(N3CCO[C@@H](c4cnn(C)c4)C3)cc(-c3ccc(Cl)cc3F)c2nc1C [Example 162, 5-(4-chloro-2-fluorophenyl)-2,3-dimethyl-7-((2S)-2-(1-methyl-1H-pyrazol-4-yl)-4-morpholinyl) quinoxaline]
≤ 0.05	++++ (Emax>250)	Cc1cc([C@H]2CN(c3cc(-c4ccc(Cl)cc4F)c4nc(C)c(C)nc4c3)CCO2)ccn1 [Example 163, 5-(4-chloro-2-fluorophenyl)-2,3-dimethyl-7-((2S)-2-(2-methyl-4-pyridinyl)-4-morpholinyl) quinoxaline]
≤ 0.05	++++ (Emax>250)	Cc1nc2cc(N3CCO[C@@H](c4cnn(C)c4)C3)cc(-c3ccc(F)cc3F)c2nc1C [Example 164, 5-(2,4-difluorophenyl)-2,3-dimethyl-7-((2S)-2-(1-methyl-1H-pyrazol-4-yl)-4-morpholinyl) quinoxaline]
≤ 0.05	++++ (Emax>250)	Cc1cc2c(-c3ccc(F)cc3F)nc(N3CCO[C@@H](c4cnn(C)c4)C3)nc2nc1C [Example 166, 4-(2,4-difluorophenyl)-6,7-dimethyl-2((2S)-2-(1-methyl-1H-pyrazol-4-yl)-4-morpholinyl) pyrido[2,3-d]pyrimidine]
0.05 to 0.5	++++ (Emax>250)	CCc1ccc2c(-c3ccc(F)cc3F)nc(N3CCO[C@@H](c4cnn(C)c4)C3)nc2n1 [Example 167, 4-(2,4-difluorophenyl)-7-ethyl-2((2S)-2-(1-methyl-1H-pyrazol-4-yl)-4-morpholinyl) pyrido[2,3-d]pyrimidine]
≤ 0.05	++++ (Emax>250)	Cc1cc([C@H]2CN(c3nc(-c4ccc(F)cc4F)c4cc(C)c(C)nc4n3)CCO2)ccn1 [Example 168, 4-(2,4-difluorophenyl)-6,7-dimethyl-2-((2S)-2-(2-methyl-4-pyridinyl)-4-morpholinyl)pyrido[2,3-d] pyrimidine]
≤ 0.05	+++ (Emax>150 and ≤250)	Cc1cc2c(-c3ccc(F)cc3F)nc(N3CCO[C@@H](c4cnn(C5CC5)c4)C3)nc2nc1C [Example 169, 2-((2S)-2-(1-cyclopropyl-1H-pyrazol-4-yl)-4-morpholinyl)-4-(2,4-difluorophenyl)-6,7-dimethylpyrido [2,3-d]pyrimidine]
0.5 to 3	++++ (Emax>250)	Cc1nc2nc([C@@H]3CCO[C@@H](c4cnn(C)c4)C3)nc(-c3ccc(Cl)cc3F)c2nc1C [Example 179, 4-(4-chloro-2-fluorophenyl)-6,7-dimethyl-2-((2R,4R)-2-(1-methyl-1H-pyrazol-4-yl)tetrahydro-2H-pyran-4-yl)pteridine]
3 to 100	+++ (Emax>150 and ≤250)	Cn1cc([C@H]2CN(c3cc4nccnc4c(-c4ccc(Cl)cc4F)n3)CCO2)cn1 [Example 233, (S)-4-(5-(4-chloro-2-fluorophenyl)pyrido[3,4-b]pyrazin-7-yl)-2-(1-methyl-1H-pyrazol-4-yl)morpholine]
0.5 to 3	+++ (Emax>150 and ≤250)	Cn1cc([C@H]2CN(c3cc4ncccc4c(-c4ccc(Cl)cc4F)n3)CCO2)cn1 [Example 234, (S)-4-(5-(4-chloro-2-fluorophenyl)-1,6-naphthyridin-7-yl)-2-(1-methyl-1H-pyrazol-4-yl)morpholine]
3 to 100	+ (Emax>45 and ≤100)	Cn1cc([C@H]2CN(c3cc4ccccc4c(-c4ccc(Cl)cc4F)n3)CCO2)cn1 [Example 235, (S)-4-(1-(4-chloro-2-fluorophenyl)isoquinolin-3-yl)-2-(1-methyl-1H-pyrazol-4-yl)morpholine]
3 to 100	+++ (Emax>150 and ≤250)	Cc1ccc2cc(N3CCO[C@@H](c4cnn(C)c4)C3)nc(-c3ccc(Cl)cc3F)c2c1 [Example 236, (S)-4-(1-(4-chloro-2-fluorophenyl)-7-methylisoquinolin-3-yl)-2-(1-methyl-1H-pyrazol-4-yl)morpholine]
3 to 100	+++ (Emax>150 and ≤250)	Cc1cc2cc(N3CCO[C@@H](c4cnn(C)c4)C3)nc(-c3ccc(Cl)cc3F)c2nc1C [Example 237, (S)-4-(8-(4-chloro-2-fluorophenyl)-2,3-dimethyl-1,7-naphthyridin-6-yl)-2-(1-methyl-1H-pyrazol-4-yl)morpholine]
3 to 100	+ (Emax>45 and ≤100)	CCc1ccc2c(-c3ccc(Cl)cc3F)nc(N3CCO[C@@H](c4cnn(C)c4)C3)cc2n1 [Example 238, (S)-4-(5-(4-chloro-2-fluorophenyl)-2-ethyl-1,6-naphthyridin-7-yl)-2-(1-methyl-1H-pyrazol-4-yl)morpholine]
3 to 100	+++ (Emax>150 and ≤250)	CCn1cc([C@H]2CN(c3cc4nc(C)ccc4c(-c4ccc(Cl)cc4F)n3)CCO2)cn1 [Example 239, (S)-4-(5-(4-chloro-2-fluorophenyl)-2-methyl-1,6-naphthyridin-7-yl)-2-(1-ethyl-1H-pyrazol-4-yl)morpholine]
3 to 100	++++ (Emax>250)	Cc1cc([C@@H]2CN(c3cc4nc(C)ccc4c(-c4ccc(Cl)cc4F)n3)CCO2)ccn1 [Example 240, (R)-4-(5-(4-chloro-2-fluorophenyl)-2-methyl-1,6-naphthyridin-7-yl)-2-(2-methylpyridin-4-yl)morpholine]
≤ 0.05	+++ (Emax>150 and ≤250)	Cc1nc2nc([C@@H]3CCO[C@H](c4cnn(C5CC5)c4)C3)nc(-c3ccc(F)cc3F)c2nc1C [Example 241, 2-((2S,4R)-2-(1-cyclopropyl-1H-pyrazol-4-yl)tetrahydro-2H-pyran-4-yl)-4-(2,4-difluorophenyl)-6,7-dimethylpteridine]
≤ 0.05	+++ (Emax>150 and ≤250)	Cc1nc2nc([C@@H]3CCO[C@H](c4cnn(C)c4)C3)nc(-c3ccc(Cl)cc3F)c2nc1C [Example 242, 4-(4-chloro-2-fluorophenyl)-6,7-dimethyl-2-((2S,4R)-2-(1-methyl-1H-pyrazol-4-yl)tetrahydro-2H-pyran-4-yl)pteridine]
0.05 to 0.5	++++ (Emax>250)	Cc1nc2nc(N3CCO[C@H]([C@@H]4CCOC4)C3)nc(-c3ccc(F)cc3F)c2nc1C [Example 243, (R)-4-(4-(2,4-difluorophenyl)-6,7-dimethylpteridin-2-yl)-2-((R)-tetrahydrofuran-3-yl)morpholine]
0.5 to 3	+++ (Emax>150 and ≤250)	Cc1nc2nc(N3CC[C@H](C(F)F)C3)nc(-c3ccc(F)cc3F)c2nc1C [Example 244, (S)-2-(3-(difluoromethyl)pyrrolidin-1-yl)-4-(2,4-difluorophenyl)-6,7-dimethylpteridine]
3 to 100	++++ (Emax>250)	Cc1nc2cc([C@@H]3CCO[C@@H](c4cnn(C)c4)C3)nc(-c3ccc(Cl)cc3F)c2nc1C [Example 245, 5-(4-chloro-2-fluorophenyl)-2,3-dimethyl-7-((2R,4R)-2-(1-methyl-1H-pyrazol-4-yl)tetrahydro-2H-pyran-4-yl)pyrido[3,4-b]pyrazine]
3 to 100	+++ (Emax>150 and ≤250)	Cc1cnc2c(-c3ccc(Cl)cc3F)nc([C@H]3CCO[C@H](c4cnn(C)c4)C3)cc2n1 [Example 246, 5-(4-chloro-2-fluorophenyl)-2-methyl-7-((2S,4S)-2-(1-methyl-1H-pyrazol-4-yl)tetrahydro-2H-pyran-4-yl)pyrido[3,4-b] pyrazine]
0.05 to 0.5	+++ (Emax>150 and ≤250)	Cc1nc2nc(N3CC[C@H](C(F)F)C3)nc(-c3ccc(Cl)cc3F)c2nc1C [Example 247, (S)-4-(4-chloro-2-fluorophenyl)-2-(3-(difluoromethyl)pyrrolidin-1-yl)-6,7-dimethylpteridine]
0.5 to 3	+++ (Emax>150 and ≤250)	Cc1cnc2c(-c3ccc(Cl)cc3F)nc([C@@H]3CCO[C@H](c4cnn(C)c4)C3)cc2n1 [Example 248, 5-(4-chloro-2-fluorophenyl)-2-methyl-7-((2S,4R)-2-(1-methyl-1H-pyrazol-4-yl)tetrahydro-2H-pyran-4-yl)pyrido[3,4-b] pyrazine]
0.5 to 3	+++ (Emax>150 and ≤250)	Cc1nc2nc([C@@H]3CCO[C@@H](c4cnn(C)c4)C3)cc(-c3ccc(Cl)cc3F)c2nc1C [Example 249, 8-(4-chloro-2-fluorophenyl)-2,3-dimethyl-6-((2R,4R)-2-(1-methyl-1H-pyrazol-4-yl)tetrahydro-2H-pyran-4-yl)pyrido[2,3-b]pyrazine]
0.5 to 3	+++ (Emax>150 and ≤250)	Cc1nc2nc([C@@H]3CCO[C@H](c4cnn(C)c4)C3)cc(-c3ccc(Cl)cc3F)c2nc1C [Example 250, 8-(4-chloro-2-fluorophenyl)-2,3-dimethyl-6-((2S,4R)-2-(1-methyl-1H-pyrazol-4-yl)tetrahydro-2H-pyran-4-yl)pyrido[2,3-b]pyrazine]

SMILES	EC50 [µM]	hTREM2 Emax
Cc1cnc2c(C34CC(C(F)(F)F)(C3)C4)nc(N3CCO[C@@H](c4cnn(C5CC5)c4)C3)nc2n1 [Example 231, (S)-2-(1-cyclopropyl-1H-pyrazol-4-yl)-4-(7-methyl-4-(3-(trifluoromethyl)bicyclo[1.1.1]pentan-1-yl)pteridin-2-yl)morpholine]	≤ 0.05	+++ (Emax>150 and ≤250)
Cc1cc([C@H]2CN(c3nc(C45CC(C(F)(F)F)(C4)C5)c4ncc(C)nc4n3)CCO2)ccn1 [Example 232, (S)-4-(7-methyl-4-(3-(trifluoromethyl)bicyclo[1.1.1]pentan-1-yl)pteridin-2-yl)-2-(2-methylpyridin-4-yl) morpholine]	≤ 0.05	++ (Emax>100 and ≤150)
